Tests used:
Assay in all cases: relative viability (nuclei count vs DMSO), 5 days (fraction); higher = more cells survive
201T = test system: 201T
How it was run: (§1)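 Nuclei were stained with Hoechst during a one-step fixation (final 0.05% Triton X-100, 1% formaldehyde, 1 ug/ml Hoechst) carried out 5 days after dosing, then counted on 4× images. The cells, lung cancer lines in 1536-well plates, had been dosed by pin tool the day after seeding with one drug alone or a fixed anchor-drug dose plus five library-drug doses (not always all listed) in √10 steps. Relative viability is the nuclei count in treated wells divided by that in vehicle wells, and each value is the median of duplicate plates.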

CAL-12T = test system: CAL-12T
How it was run: as §1

ChaGo-K-1 = test system: ChaGo-K-1
How it was run: as §1

HOP-62 = test system: HOP-62
How it was run: as §1

LC-2-ad = test system: LC-2-ad
How it was run: as §1

NCI-H1355 = test system: NCI-H1355
How it was run: as §1

NCI-H1395 = test system: NCI-H1395
How it was run: as §1

NCI-H1651 = test system: NCI-H1651
How it was run: as §1

NCI-H1666 = test system: NCI-H1666
How it was run: as §1

NCI-H1734 = test system: NCI-H1734
How it was run: as §1

NCI-H1944 = test system: NCI-H1944
How it was run: as §1

NCI-H1993 = test system: NCI-H1993
How it was run: as §1

NCI-H2085 = test system: NCI-H2085
How it was run: as §1

NCI-H2170 = test system: NCI-H2170
How it was run: as §1

NCI-H2342 = test system: NCI-H2342
How it was run: as §1

NCI-H322M = test system: NCI-H322M
How it was run: as §1

NCI-H838 = test system: NCI-H838
How it was run: as §1

RERF-LC-KJ = test system: RERF-LC-KJ
How it was run: as §1

## COCC1(CO)C(=O)C2CCN1CC2 (stereo not given) [PRIMA-1MET] + NC(=O)Nc1cc(-c2cccc(F)c2)sc1C(=O)N[C@H]1CCCNC1 [AZD7762] (partner 0.2 µM)
201T; first compound 0.2 µM
  relative viability: 0.484
201T; first compound 0.6325 µM
  relative viability: 0.578
201T; first compound 2 µM
  relative viability: 0.626
201T; first compound 6.325 µM
  relative viability: 0.577
201T; first compound 20 µM
  relative viability: 0.563
CAL-12T; first compound 0.2 µM
  relative viability: 0.603
CAL-12T; first compound 2 µM
  relative viability: 0.6
CAL-12T; first compound 6.325 µM
  relative viability: 0.777
CAL-12T; first compound 20 µM
  relative viability: 0.601
ChaGo-K-1; first compound 0.2 µM
  relative viability: 0.765
ChaGo-K-1; first compound 0.6325 µM
  relative viability: 0.794
ChaGo-K-1; first compound 2 µM
  relative viability: 0.819
ChaGo-K-1; first compound 6.325 µM
  relative viability: 0.85
ChaGo-K-1; first compound 20 µM
  relative viability: 0.779
HOP-62; first compound 0.2 µM
  relative viability: 0.653
HOP-62; first compound 0.6325 µM
  relative viability: 0.387
HOP-62; first compound 2 µM
  relative viability: 0.482
HOP-62; first compound 6.325 µM
  relative viability: 0.655
HOP-62; first compound 20 µM
  relative viability: 0.273
LC-2-ad; first compound 0.2 µM
  relative viability: 0.968
LC-2-ad; first compound 0.6325 µM
  relative viability: 0.806
LC-2-ad; first compound 2 µM
  relative viability: 0.669
LC-2-ad; first compound 6.325 µM
  relative viability: 0.932
LC-2-ad; first compound 20 µM
  relative viability: 0.791
NCI-H1355; first compound 0.2 µM
  relative viability: 0.887
NCI-H1355; first compound 0.6325 µM
  relative viability: 0.61
NCI-H1355; first compound 2 µM
  relative viability: 0.702
NCI-H1355; first compound 6.325 µM
  relative viability: 0.874
NCI-H1355; first compound 20 µM
  relative viability: 0.72
NCI-H1395; first compound 0.2 µM
  relative viability: 0.376
NCI-H1395; first compound 2 µM
  relative viability: 0.385
NCI-H1395; first compound 6.325 µM
  relative viability: 0.38
NCI-H1395; first compound 20 µM
  relative viability: 0.129
NCI-H1651; first compound 0.2 µM
  relative viability: 0.442
NCI-H1651; first compound 0.6325 µM
  relative viability: 0.443
NCI-H1651; first compound 2 µM
  relative viability: 0.478
NCI-H1651; first compound 6.325 µM
  relative viability: 0.513
NCI-H1651; first compound 20 µM
  relative viability: 0.592
NCI-H1666; first compound 0.2 µM
  relative viability: 0.841
NCI-H1666; first compound 0.6325 µM
  relative viability: 0.688
NCI-H1666; first compound 2 µM
  relative viability: 0.798
NCI-H1666; first compound 6.325 µM
  relative viability: 0.817
NCI-H1666; first compound 20 µM
  relative viability: 0.728
NCI-H1734; first compound 0.2 µM
  relative viability: 0.52
NCI-H1734; first compound 0.6325 µM
  relative viability: 0.538
NCI-H1734; first compound 2 µM
  relative viability: 0.685
NCI-H1734; first compound 6.325 µM
  relative viability: 0.452
NCI-H1734; first compound 20 µM
  relative viability: 0.0452
NCI-H1944; first compound 0.2 µM
  relative viability: 0.661
NCI-H1944; first compound 0.6325 µM
  relative viability: 0.43
NCI-H1944; first compound 2 µM
  relative viability: 0.381
NCI-H1944; first compound 6.325 µM
  relative viability: 0.533
NCI-H1944; first compound 20 µM
  relative viability: 0.511
NCI-H1993; first compound 0.2 µM
  relative viability: 0.476
NCI-H1993; first compound 2 µM
  relative viability: 0.726
NCI-H1993; first compound 6.325 µM
  relative viability: 0.783
NCI-H1993; first compound 20 µM
  relative viability: 0.716
NCI-H2085; first compound 0.2 µM
  relative viability: 1.09
NCI-H2085; first compound 0.6325 µM
  relative viability: 1.1
NCI-H2085; first compound 2 µM
  relative viability: 0.588
NCI-H2085; first compound 6.325 µM
  relative viability: 0.942
NCI-H2085; first compound 20 µM
  relative viability: 0.176
NCI-H2170; first compound 0.2 µM
  relative viability: 1.06
NCI-H2170; first compound 0.6325 µM
  relative viability: 0.604
NCI-H2170; first compound 2 µM
  relative viability: 0.644
NCI-H2170; first compound 6.325 µM
  relative viability: 1
NCI-H2170; first compound 20 µM
  relative viability: 0.836
NCI-H2342; first compound 0.2 µM
  relative viability: 0.566
NCI-H2342; first compound 0.6325 µM
  relative viability: 0.371
NCI-H2342; first compound 6.325 µM
  relative viability: 0.531
NCI-H2342; first compound 20 µM
  relative viability: 0.41
NCI-H322M; first compound 0.2 µM
  relative viability: 0.657
NCI-H322M; first compound 0.6325 µM
  relative viability: 0.558
NCI-H322M; first compound 6.325 µM
  relative viability: 0.59
NCI-H322M; first compound 20 µM
  relative viability: 0.406
NCI-H838; first compound 0.2 µM
  relative viability: 0.989
NCI-H838; first compound 0.6325 µM
  relative viability: 0.88
NCI-H838; first compound 2 µM
  relative viability: 0.9
NCI-H838; first compound 6.325 µM
  relative viability: 1.05
NCI-H838; first compound 20 µM
  relative viability: 0.849
RERF-LC-KJ; first compound 0.2 µM
  relative viability: 1.11
RERF-LC-KJ; first compound 0.6325 µM
  relative viability: 0.875
RERF-LC-KJ; first compound 2 µM
  relative viability: 0.928
RERF-LC-KJ; first compound 6.325 µM
  relative viability: 1.04
RERF-LC-KJ; first compound 20 µM
  relative viability: 0.978
